# In patent US8791148B2, “Substituted benzimidazolone derivatives, medicaments comprising them and their use” (AbbVie Deutschland GmbH & Co. KG, priority 2006, dated 2014):
# Target: T1, human vasopressin V1b receptor (Homo sapiens, UniProt P47901)
# T1 construct: expressed in transfected cells; host or cells: CHO-K1 (cell line hV1b-3H2_CHO), membrane preparation
# T1 sequence (P47901 1-424): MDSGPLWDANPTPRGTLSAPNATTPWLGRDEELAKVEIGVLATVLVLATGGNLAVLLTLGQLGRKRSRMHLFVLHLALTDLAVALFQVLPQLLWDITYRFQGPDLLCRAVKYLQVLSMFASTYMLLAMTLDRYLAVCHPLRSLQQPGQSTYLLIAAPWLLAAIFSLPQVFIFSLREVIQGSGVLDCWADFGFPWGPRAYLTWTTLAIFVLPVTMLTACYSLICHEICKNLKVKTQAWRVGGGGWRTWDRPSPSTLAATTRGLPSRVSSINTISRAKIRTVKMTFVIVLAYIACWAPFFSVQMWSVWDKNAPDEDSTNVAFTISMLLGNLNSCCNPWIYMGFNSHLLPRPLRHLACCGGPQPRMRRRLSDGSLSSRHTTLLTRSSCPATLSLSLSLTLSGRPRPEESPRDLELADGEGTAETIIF
# Experiment: Vasopressin V1b receptor binding assay
# Settings: membranes from CHO-K1 cells with stably expressed human V1b receptors; displacement of 1.5 nM 3H-AVP; read-out: V1b receptor affinity (affinity constant Ki)
# Procedure, shortened: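 Membranes expressing human V1b receptor were incubated with radioligand and test compound (2% DMSO final) in 50 mM Tris, 10 mM MgCl2, 0.1% BSA, pH 7.4, for 60 min at room temperature, in triplicate. 1 uM AVP defined nonspecific binding. Bound ligand was separated by filtration and counted by scintillation; Ki came from nonlinear regression.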
row,Ki,SMILES
1,< 0.1 µM,"COc1ccc(S(=O)(=O)n2c(=O)n(C(C(=O)N3CC[C@@H](CN4CCN(Cc5ccccc5)CC4)C3)c3ccccc3)c3cc(C#N)ccc32)cc1 (stereo partly drawn) [Example 221, 3-{2-[(S)-3-(4-Benzyl-piperazin-1-ylmethyl)-pyrrolidin-1-yl]-2-oxo-1-phenylethyl}-1-(4-methoxy-benzenesulfonyl)-2-oxo-2,3-dihydro-1H-benzoimidazole-5-carbonitrile; compound with trifluoroacetic acid]"
2,< 0.1 µM,"COc1ccc(S(=O)(=O)n2c(=O)n(C(C(=O)N3CC[C@H](CN4CCNCC4)C3)c3ccccc3)c3cc(C#N)ccc32)cc1 (stereo partly drawn) [Example 226, 1-(4-Methoxy-benzenesulfonyl)-2-oxo-3-[2-oxo-1-phenyl-2-((R)-3-piperazin-1-ylmethyl-pyrrolidin-1-yl)-ethyl]-2,3-dihydro-1H-benzoimidazole-5-carbonitrile]"
3,< 0.1 µM,"CCN1CCN([C@H]2CCCN(C(=O)C(c3ccccc3)n3c(=O)n(S(=O)(=O)c4ccc(OC)cc4)c4ccc(C#N)cc43)C2)CC1 (stereo partly drawn) [Example 231, 3-{2-[(S)-3-(4-Ethyl-piperazin-1-yl)-piperidin-1-yl]-2-oxo-1-phenyl-ethyl}-1-(4-methoxy-benzenesulfonyl)-2-oxo-2,3-dihydro-1H-benzoimidazole-5-carbonitrile; compound with trifluoroacetic acid]"
4,0.1 to 0.5 µM,"CCCN1CCN([C@H]2CCN(C(=O)C(c3ccccc3)n3c(=O)n(S(=O)(=O)c4ccc(OCCF)cc4)c4ccc(C#N)cc43)C2)CC1 (stereo partly drawn) [Example 232, 1-[4-(2-Fluoro-ethoxy)-benzenesulfonyl]-2-oxo-3-{2-oxo-1-phenyl-2-[(S)-3-(4-propyl-piperazin-1-yl)-pyrrolidin-1-yl]-ethyl}-2,3-dihydro-1H-benzoimidazole-5-carbonitrile]"
5,< 0.1 µM,"CCCN1CCN([C@H]2CCN(C(=O)C(c3ccccc3)n3c(=O)n(S(=O)(=O)c4ccc(OCC(F)F)cc4)c4ccc(C#N)cc43)C2)CC1 (stereo partly drawn) [Example 233, 1-[4-(2,2-Difluoro-ethoxy)-benzenesulfonyl]-2-oxo-3-{2-oxo-1-phenyl-2-[(S)-3-(4-propyl-piperazin-1-yl)-pyrrolidin-1-yl]-ethyl}-2,3-dihydro-1H-benzoimidazole-5-carbonitrile]"
6,0.1 to 0.5 µM,"CCCN1CCN([C@H]2CCN(C(=O)C(c3ccccc3)n3c(=O)n(S(=O)(=O)c4ccc(OCC(F)(F)F)cc4)c4ccc(C#N)cc43)C2)CC1 (stereo partly drawn) [Example 234, 2-oxo-3-{2-oxo-1-phenyl-2-[(S)-3-(4-propyl-piperazin-1-yl)-pyrrolidin-1-yl]-ethyl}1-[4-(2,2,2-trifluoro-ethoxy)-benzenesulfonyl]-2,3-dihydro-1H-benzoimidazole-5-carbonitrile]"
7,< 0.1 µM,"CCCN1CCN(C[C@H]2CCN(C(=O)C(c3ccccc3)n3c(=O)n(S(=O)(=O)c4ccc(OC)cc4)c4ccc(C#N)cc43)C2)CC1 (stereo partly drawn) [Example 235, 1-(4-Methoxy-benzenesulfonyl)-2-oxo-3-{2-oxo-1-phenyl-2-[(R)-3-(4-propylpiperazin-1-ylmethyl)-pyrrolidin-1-yl]-ethyl}-2,3-dihydro-1H-benzoimidazole-5-carbonitrile; compound with trifluoroacetic acid]"
8,< 0.1 µM,"COc1ccc(S(=O)(=O)n2c(=O)n(C(C(=O)N3CC[C@H](CN4CCN(C)CC4)C3)c3ccccc3)c3cc(C#N)ccc32)cc1 (stereo partly drawn) [Example 236, 1-(4-Methoxy-benzenesulfonyl)-3-{2-[(R)-3-(4-methyl-piperazin-1-ylmethyl)-pyrrolidin-1-yl]-2-oxo-1-phenyl-ethyl}-2-oxo-2,3-dihydro-1H-benzoimidazole-5-carbonitrile; compound with trifluoroacetic acid]"
9,< 0.1 µM,"CCN1CCN(C[C@H]2CCN(C(=O)C(c3ccccc3)n3c(=O)n(S(=O)(=O)c4ccc(OC)cc4)c4ccc(C#N)cc43)C2)CC1 (stereo partly drawn) [Example 237, 3-{2-[(R)-3-(4-Ethyl-piperazin-1-ylmethyl)-pyrrolidin-1-yl]-2-oxo-1-phenyl-ethyl}-1-(4-methoxy-benzenesulfonyl)-2-oxo-2,3-dihydro-1H-benzoimidazole-5-carbonitrile; compound with trifluoroacetic acid]"
10,< 0.1 µM,"COc1ccc(S(=O)(=O)n2c(=O)n(C(C(=O)N3CC[C@H](CN4CCN(C(C)C)CC4)C3)c3ccccc3)c3cc(C#N)ccc32)cc1 (stereo partly drawn) [Example 238, 3-{2-[(R)-3-(4-Isopropyl-piperazin-1-ylmethyl)-pyrrolidin-1-yl]-2-oxo-1-phenylethyl}-1-(4-methoxy-benzenesulfonyl)-2-oxo-2,3-dihydro-1H-benzoimidazole-5-carbonitrile; compound with trifluoroacetic acid]"
11,0.5 to 10 µM,"COc1ccc(S(=O)(=O)n2c(=O)n(C(C(=O)N3CCC(N)CC3)c3ccccc3)c3cc(C#N)ccc32)cc1 (stereo not drawn) [Example 239, 3-[2-(4-Amino-piperidin-1-yl)-2-oxo-1-phenyl-ethyl]-1-(4-methoxybenzenesulfonyl)-2-oxo-2,3-dihydro-1H-benzoimidazole-5-carbonitrile]"

# Second part, the compound before the results:
row,SMILES,Ki
1,"CCCN1CCN([C@H]2CCN(C(=O)C(c3ccccc3)n3c(=O)n(S(=O)(=O)c4ccccc4OC)c4ccc(C#N)cc43)C2)CC1 (stereo partly drawn) [Example 205, 1-(2-Methoxybenzenesulfonyl)-2-oxo-3-{2-oxo-1-phenyl-2-[(S)-3-(4-propylpiperazin-1-yl)pyrrolidin-1-yl]ethyl}-2,3-dihydro-1H-benzimidazole-5-carbonitrile]",0.5 to 10 µM
2,"COc1ccc(S(=O)(=O)n2c(=O)n(C(C(=O)N3CCC(NC4CCN(C)CC4)CC3)c3ccccc3)c3cc(C#N)ccc32)cc1 (stereo not drawn) [Example 206, 1-(4-Methoxybenzenesulfonyl)-3-{2-[4-(1-methylpiperidin-4-ylamino)piperidin-1-yl]-2-oxo-1-phenylethyl}-2-oxo-2,3-dihydro-1H-benzimidazole-5-carbonitrile]",< 0.1 µM
3,"COc1ccc(S(=O)(=O)n2c(=O)n(C(C(=O)N3CC[C@H](NC4CCN(C)CC4)C3)c3ccccc3)c3cc(C#N)ccc32)cc1 (stereo partly drawn) [Example 207, 1-(4-Methoxybenzenesulfonyl)-3-{2-[(S)-3-(1-methylpiperidin-4-ylamino)-pyrrolidin-1-yl]-2-oxo-1-phenylethyl}-2-oxo-2,3-dihydro-1H-benzimidazole-5-carbonitrile]",< 0.1 µM
4,"COc1ccc(S(=O)(=O)n2c(=O)n(C(C(=O)N3CC[C@H](NC4CCN(C(C)C)CC4)C3)c3ccccc3)c3cc(C#N)ccc32)cc1 (stereo partly drawn) [Example 208, 3-{2-[(S)-3-(1-Isopropylpiperidin-4-ylamino)pyrrolidin-1-yl]-2-oxo-1-phenylethyl}-1-(4-methoxybenzenesulfonyl)-2-oxo-2,3-dihydro-1H-benzimidazole-5-carbonitrile]",< 0.1 µM
5,"CCN1CCC(N[C@H]2CCN(C(=O)C(c3ccccc3)n3c(=O)n(S(=O)(=O)c4ccc(OC)cc4)c4ccc(C#N)cc43)C2)CC1 (stereo partly drawn) [Example 209, 3-{2-[(S)-3-(1-Ethylpiperidin-4-ylamino)pyrrolidin-1-yl]-2-oxo-1-phenylethyl}-1-(4-methoxybenzenesulfonyl)-2-oxo-2,3-dihydro-1H-benzimidazole-5-carbonitrile]",< 0.1 µM
6,"CCCN1CCC(N[C@H]2CCN(C(=O)C(c3ccccc3)n3c(=O)n(S(=O)(=O)c4ccc(OC)cc4)c4ccc(C#N)cc43)C2)CC1 (stereo partly drawn) [Example 210, 1-(4-Methoxybenzenesulfonyl)-2-oxo-3-{2-oxo-1-phenyl-2-[(S)-3-(1-propylpiperidin-4-ylamino)pyrrolidin-1-yl]ethyl}-2,3-dihydro-1H-benzimidazole-5-carbonitrile]",< 0.1 µM
7,"COc1ccc(S(=O)(=O)n2c(=O)n(C(C(=O)N3CC[C@H](N(C)C4CCN(C)CC4)C3)c3ccccc3)c3cc(C#N)ccc32)cc1 (stereo partly drawn) [Example 211, 1-(4-Methoxybenzenesulfonyl)-3-(2-{(S)-3-[methyl-(1-methylpiperidin-4-yl)-amino]pyrrolidin-1-yl}-2-oxo-1-phenylethyl)-2-oxo-2,3-dihydro-1H-benzimidazole-5-carbonitrile]",< 0.1 µM
8,"CCCN1CCN([C@H]2CCN(C(=O)C(c3ccccc3)n3c(=O)n(S(=O)(=O)c4ccc(C#N)cc4)c4ccc(C#N)cc43)C2)CC1 (stereo partly drawn) [Example 215, 1-(4-Cyano-benzenesulfonyl)-2-oxo-3-{2-oxo-1-phenyl-2-[(S)-3-(4-propylpiperazin-1-yl)-pyrrolidin-1-yl]ethyl}-2,3-dihydro-1H-benzoimidazole-5-carbonitrile]",0.1 to 0.5 µM
9,"COc1ccc(S(=O)(=O)n2c(=O)n(C(C(=O)N3CC[C@H](NC(=O)OC(C)(C)C)C3)c3ccccc3)c3cc(C#N)ccc32)cc1 (stereo partly drawn) [Example 216, ((S)-1-{2-[6-Cyano-3-(4-methoxy-benzenesulfonyl)-2-oxo-2,3-dihydrobenzoimidazol-1-yl]-2-phenyl-acetyl}-pyrrolidin-3-yl)-carbamic acid tert-butyl ester]",0.5 to 10 µM
10,"COc1ccc(S(=O)(=O)n2c(=O)n(C(C(=O)N3CC[C@H](CN4CCN(Cc5ccccc5)CC4)C3)c3ccccc3)c3cc(C#N)ccc32)cc1 (stereo partly drawn) [Example 220, 3-{2-[(R)-3-(4-Benzyl-piperazin-1-ylmethyl)-pyrrolidin-1-yl]-2-oxo-1-phenylethyl}-1-(4-methoxy-benzenesulfonyl)-2-oxo-2,3-dihydro-1H-benzoimidazole-5-carbonitrile; compound with trifluoroacetic acid]",< 0.1 µM
